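Method: 48-hour compound exposure of cells in 96-well plates, five concentrations, linear interpolation of endpoints. GI50 is the concentration that inhibits growth by half.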 Active and inactive are the calls of the source. Cut-off read from the data, not from the text of the source: active = GI50 up to about 1.1 µM and inactive = higher.
How the values were obtained:
Experiment in all cases: growth of human tumour cells (NCI), 48 h
U-251 = test system: U-251
Malme-3M = test system: Malme-3M
SK-OV-3 = test system: SK-OV-3
IGROV-1 = test system: IGROV-1
KM12 = test system: KM12
K562 = test system: K562
CCRF-CEM = test system: CCRF-CEM
OVCAR-4 = test system: OVCAR-4
OVCAR-5 = test system: OVCAR-5
HCT-116 = test system: HCT-116
MOLT-4 = test system: MOLT-4
UO-31 = test system: UO-31
UACC-257 = test system: UACC-257
NCI-H460 = test system: NCI-H460
HL-60 = test system: HL-60
SN12C = test system: SN12C
PC-3 = test system: PC-3
UACC-62 = test system: UACC-62
SK-MEL-5 = test system: SK-MEL-5
BT-549 = test system: BT-549
NCI/ADR-RES = test system: NCI/ADR-RES
786-0 = test system: 786-0
MDA-MB-435 = test system: MDA-MB-435
SK-MEL-2 = test system: SK-MEL-2
OVCAR-3 = test system: OVCAR-3
LOX IMVI = test system: LOX IMVI
OVCAR-8 = test system: OVCAR-8
SW-620 = test system: SW-620
RXF 393 = test system: RXF 393
SK-MEL-28 = test system: SK-MEL-28
CAKI-1 = test system: CAKI-1
SF-295 = test system: SF-295
RPMI-8226 = test system: RPMI-8226
MDA-N = test system: MDA-N
Hs-578T = test system: Hs-578T
A549 = test system: A549
NCI-H226 = test system: NCI-H226
HCC 2998 = test system: HCC 2998
EKVX = test system: EKVX
T47D = test system: T47D
COLO 205 = test system: COLO 205
MDA-MB-231 = test system: MDA-MB-231
M14 = test system: M14
HCT-15 = test system: HCT-15
SNB-75 = test system: SNB-75
DU-145 = test system: DU-145
SF-539 = test system: SF-539
SR = test system: SR
HT-29 = test system: HT-29
SF-268 = test system: SF-268
SNB-19 = test system: SNB-19
HOP-92 = test system: HOP-92
NCI-H23 = test system: NCI-H23
HOP-62 = test system: HOP-62
TK-10 = test system: TK-10
MCF7 = test system: MCF7
ACHN = test system: ACHN
NCI-H522 = test system: NCI-H522
A498 = test system: A498

For O=C1OCN(c2ccccc2)C12CCN(Cc1ccccc1)CC2, the GI50 (U-251) was 16.9 µM (inactive), the GI50 (Malme-3M) was 18.1 µM (inactive) and the GI50 (SK-OV-3) was 74.6 µM (inactive). The GI50 (IGROV-1) was 59.8 µM (inactive), the GI50 (KM12) was 23.7 µM (inactive) and the GI50 (K562) was 5.35 µM (inactive). The GI50 (CCRF-CEM) was 15.5 µM (inactive), the GI50 (OVCAR-4) was 35.8 µM (inactive) and the GI50 (OVCAR-5) was > 100 µM (inactive). The GI50 (HCT-116) was 31.7 µM (inactive), the GI50 (MOLT-4) was 13.6 µM (inactive) and the GI50 (UO-31) was 51.3 µM (inactive). The GI50 (UACC-257) was 16.7 µM (inactive), the GI50 (NCI-H460) was 22.9 µM (inactive) and the GI50 (HL-60) was 27.8 µM (inactive). For the same molecule, the GI50 (SN12C) was 42.6 µM (inactive), the GI50 (PC-3) was 24.7 µM (inactive) and the GI50 (UACC-62) was 18.6 µM (inactive). The GI50 (SK-MEL-5) was 19.5 µM (inactive), the GI50 (BT-549) was 67.1 µM (inactive) and the GI50 (NCI/ADR-RES) was 50.4 µM (inactive). For the same molecule, the GI50 (786-0) was 26.8 µM (inactive), the GI50 (MDA-MB-435) was 17.1 µM (inactive) and the GI50 (SK-MEL-2) was 25.8 µM (inactive). The GI50 (OVCAR-3) was > 10 µM (inactive), the GI50 (LOX IMVI) was 14.6 µM (inactive) and the GI50 (OVCAR-8) was 39.4 µM (inactive). The GI50 (SW-620) was 18 µM (inactive), the GI50 (RXF 393) was 16.9 µM (inactive) and the GI50 (SK-MEL-28) was 19.3 µM (inactive). The GI50 (CAKI-1) was 45 µM (inactive), the GI50 (SF-295) was 16.4 µM (inactive) and the GI50 (RPMI-8226) was 23.7 µM (inactive). For the same molecule, the GI50 (MDA-N) was 23.6 µM (inactive), the GI50 (Hs-578T) was 23.9 µM (inactive) and the GI50 (A549) was 41.2 µM (inactive). For the same molecule, the GI50 (NCI-H226) was > 100 µM (inactive), the GI50 (HCC 2998) was 6.62 µM (inactive) and the GI50 (EKVX) was > 100 µM (inactive). The GI50 (T47D) was 23 µM (inactive), the GI50 (COLO 205) was 18.8 µM (inactive) and the GI50 (MDA-MB-231) was 21.8 µM (inactive). For the same molecule, the GI50 (M14) was 18.2 µM (inactive), the GI50 (HCT-15) was 33.7 µM and the GI50 (SNB-75) was 19.4 µM (inactive). For the same molecule, the GI50 (DU-145) was 66.4 µM (inactive), the GI50 (SF-539) was 20.8 µM (inactive) and the GI50 (SR) was 34.4 µM (inactive). The GI50 (HT-29) was 16.4 µM (inactive), the GI50 (SF-268) was 43 µM (inactive) and the GI50 (SNB-19) was 67 µM (inactive). For the same molecule, the GI50 (HOP-92) was 39.3 µM (inactive), the GI50 (NCI-H23) was 53.5 µM (inactive) and the GI50 (HOP-62) was 49.3 µM (inactive). The GI50 (TK-10) was 32.8 µM (inactive), the GI50 (MCF7) was 32.6 µM (inactive) and the GI50 (ACHN) was 49.2 µM (inactive).
In the case of CC1CNC(c2ccc3c(c2)Cc2cc(C4=NC(C)CN4)ccc2-3)=N1 (centres undefined), the GI50 (NCI-H522) is reported as 22.2 µM (inactive), the GI50 (U-251) is reported as 19.4 µM (inactive) and the GI50 (Malme-3M) is reported as 19.2 µM (inactive). The GI50 (SK-OV-3) was 37.9 µM (inactive), the GI50 (IGROV-1) was > 100 µM (inactive) and the GI50 (KM12) was 20.3 µM (inactive). For the same molecule, the GI50 (K562) was 34.4 µM (inactive), the GI50 (CCRF-CEM) was > 100 µM (inactive) and the GI50 (OVCAR-4) was 19.1 µM (inactive). The GI50 (OVCAR-5) was > 100 µM (inactive), the GI50 (HCT-116) was 31.3 µM (inactive) and the GI50 (MOLT-4) was 37.8 µM (inactive). The GI50 (UO-31) was > 100 µM (inactive), the GI50 (UACC-257) was 32.6 µM (inactive) and the GI50 (NCI-H460) was 26.6 µM (inactive). For the same molecule, the GI50 (SN12C) was 48.1 µM (inactive), the GI50 (PC-3) was 43.8 µM (inactive) and the GI50 (UACC-62) was 28.6 µM (inactive). The GI50 (SK-MEL-5) was 71.8 µM (inactive), the GI50 (BT-549) was > 100 µM (inactive) and the GI50 (NCI/ADR-RES) was > 100 µM (inactive). The GI50 (786-0) was 54.3 µM (inactive), the GI50 (MDA-MB-435) was 25.8 µM (inactive) and the GI50 (SK-MEL-2) was 23.2 µM (inactive). For the same molecule, the GI50 (OVCAR-3) was 20.8 µM (inactive), the GI50 (LOX IMVI) was 47.2 µM (inactive) and the GI50 (OVCAR-8) was 37.2 µM (inactive). For the same molecule, the GI50 (SW-620) was 56.1 µM (inactive), the GI50 (RXF 393) was > 100 µM (inactive) and the GI50 (SK-MEL-28) was 87.1 µM (inactive). For the same molecule, the GI50 (CAKI-1) was > 100 µM (inactive), the GI50 (SF-295) was 71.9 µM (inactive) and the GI50 (RPMI-8226) was 36.6 µM (inactive). The GI50 (MDA-N) was 34.8 µM (inactive), the GI50 (Hs-578T) was 38.1 µM (inactive) and the GI50 (A549) was > 100 µM (inactive). The GI50 (NCI-H226) was 55.7 µM (inactive), the GI50 (HCC 2998) was 18.2 µM (inactive) and the GI50 (EKVX) was > 100 µM (inactive). The GI50 (T47D) was 35.6 µM (inactive), the GI50 (A498) was > 100 µM (inactive) and the GI50 (COLO 205) was 54 µM (inactive). The GI50 (MDA-MB-231) was 33.6 µM (inactive), the GI50 (M14) was 40.2 µM (inactive) and the GI50 (HCT-15) was greater than 100 µM. The GI50 (SNB-75) was 54.2 µM (inactive), the GI50 (DU-145) was 65.8 µM (inactive) and the GI50 (SR) was 42.9 µM (inactive). For the same molecule, the GI50 (HT-29) was 61.2 µM (inactive), the GI50 (SF-268) was 26.1 µM (inactive) and the GI50 (SNB-19) was 36.6 µM (inactive). For the same molecule, the GI50 (HOP-92) was > 100 µM (inactive), the GI50 (NCI-H23) was 37.2 µM (inactive) and the GI50 (HOP-62) was 41 µM (inactive). For the same molecule, the GI50 (TK-10) was > 100 µM (inactive), the GI50 (MCF7) was 17.7 µM (inactive) and the GI50 (ACHN) was > 100 µM (inactive).

— ChEMBL document CHEMBL1201862, “PubChem BioAssay data set” (2004)
